The structures appear in SMILES notation.

A short description of the data set: Spontaneous locomotor activity test in mice. The settings on record: mouse, in vivo; single oral dose, male ICR mice; read-out: ED50, inhibition of spontaneous locomotor activity.

As to `O=C1CCc2cc(OCCCN3CCC(c4noc5cc(F)ccc45)CC3)cc3c2N1CC3` [NH300094, 8-(3-(4-(6-fluorobenzo [d]isoxazol-3-yl)piperidin-1-yl)propoxy)-1,2,5,6-tetrahydro-4H-pyrrolo [3,2,1-ij] quinolin-4-one], the ED50 – broadly, the midpoint of the dose-response relation – at 60 min is about 0.49 mg/kg.

For the origin of these results see PMC10848157, “Assessing NH300094, a novel dopamine and serotonin receptor modulator with cognitive enhancement property for treating schizophrenia” (Frontiers in Pharmacology, 2024).
